Measurements from patent US11066455B2, “Tmem100 peptides and variants thereof and their use in treating or preventing diseases or conditions” (The Johns Hopkins University, priority 2014, dated 2021).
* marks the point of attachment. Myristoyl = CCCCCCCCCCCCCC(=O)*

B1: Tmem100-3Q mutant (full-length, mouse) (protein)
chain: MTEESTKENLGAPKSPTPVTMEKNPKREVVVTTGPLVSEVQLMAATGGAELSCYRCIIPFAVVVFITGIVVTAVAYSFNSHGSIISIFGLVLLSSGLFLLASSALCWKVRQRNKKVQQQESQTALVVNQRCLFA

Key:
[1] = test system: MO-induced pain in wild-type mice; experiment: Mustard oil injection in hindpaw: acute nocifensive behavior and von Frey mechanical hyperalgesia; assay type: in vivo, mouse
Method: Mice were placed in a transparent plastic box (4.5×5×10 cm) on a metal mesh and acclimatized for 30 minutes prior to testing. Each mouse was tested more than 5 times at a specific force manually, and the threshold was determined by the lowest force needed to elicit responses more than 50% of the time.
Mice were injected intradermally in the hind paw with 6 μL of 0.2% mustard oil (Sigma-Aldrich 377430) with Hamilton needles (80300). The mice were placed in a plexiglass cylinder, and the total time spent licking and flinching was recorded for the first 10 minutes after injection. Thirty and sixty minutes after injection, the mice were assayed with von Frey filaments for mechanical hyperalgesia.
The sequence from the last 28 amino acids of the C-terminus of the Tmem100-3Q mutant protein was synthesized and myristoylated at its N-terminus (myr-[…]-COOH) (SEQ ID NO: 8) by Twentyfirst Century Biochemicals. […] For the calcium imaging assay, the peptides were added to the calcium imaging buffer with a final concentration of 200 nM and incubated for at least […] at room temperature. For the mice behavioral assays, the peptides (5 μL, 2 mM) were injected subcutaneously in the hindpaw at least 30 minutes before testing. For the rat behavior assays, human T100-3Q (h-T100), a palmitoylated cell permeable peptide mutated based on the C terminus of human sequence in Tmem100, was applied. […]

TRPA1 [2] = test system: T1, TRPA1; experiment: Calcium imaging of HEK293T cells expressing TRPA1 and TRPV1 (MO or CA); assay type: cell-based
T1 construct: percentage of cells responsive to CA; other: shortened CPP 2 μM; CA 10 μM; HEK293 TRPA1+TRPV1; vs scrambled; percentage of cells responsive to MO; other: peptide 200 nM pre-treatment; 500 nM MO; HEK293T TRPA1+TRPV1; percentage of cells that respond to 100 nM MO and 10 μM CA; other: HEK293T TRPA1+TRPV1, Tmem100-3Q-transfected vs lacki; reduction in the percentage of cells responding to MO
Method: (§1) Calcium imaging assays were performed as previously described (Liu et al., 2009). Cells were loaded with 2 μM fura 2-acetomethoxy ester (Molecular Probes) for 30 min in the dark at room temperature or for 45 minutes at 37° C. for DRG and cell lines, respectively. After washing, cells were imaged at 340 and 380 nm excitation to detect intracellular free calcium under a fluorescent microscope (Nikon Eclipse TE2000-S) and Lambda 10B shutter (Sutter Instrument). The cells were bathed in calcium imaging buffer (pH 7.45, 130 mM NaCl, 3 mM KCl, 2.5 mM CaCl2, 10 mM HEPES, 10 mM glucose, 1.2 mM NaHCO3, with sucrose to increase osmolarity to 290 mOsm). The reagents and buffers were applied through a gravity perfusion system at a rate of […], including mustard oil (Sigma 377430), cinnamaldehyde (Sigma C80687), menthol (Sigma M2780), and capsaicin (Sigma M2028). Cells with high baseline 340/380 values (>1.5) were excluded for analysis. For DRG neurons, IB4 staining was performed in the chamber with the dilution of 1:200 (Molecular Probes 121412) for 160 seconds before washing off at the end of each test. Images were processed and analyzed with NIS-Elements BR 2.30 software (Nikon). A responsive cell was defined as one that with greater than a 20% increase in the 340/380 ratio above the baseline. Intracellular calibration for calcium was performed as previously described (Akopian et al., 2007). The data was analyzed with the experimenter blinded to the genotypes or constructs transfected.
DRG from 3 to 4-week old mice were collected in cold DH10 medium (90% DMEM/F-12, 10% FBS, 100 U/ml penicillin, and 100 μg/ml Streptomycin, Gibco) and treated with enzyme solution in HBSS containing collagenase (1.65 mg/mL, Worthington CLS I) and dispase (3.55 mg/mL, GIBCO 17105-041) at 37° C. for 30 minutes. After trituration and centrifugation, cells were resuspended in DH10, plated on glass coverslips coated with poly-D-lysine (0.5 mg/ml, Stoughton, Mass.) and laminin (10 μg/ml, Invitrogen), and cultured overnight in an incubator at 37° C. The neurons were tested within 24 hours. HEK293T, COS-7, and CHO cells were cultured in a medium consisting of 90% DMEM, 10% FBS, 100 U/mL penicillin, and 100 μg/ml Streptomycin. GlutaMAX (Gibco 35050-061) was also added for CHO cells. For calcium imaging, the cells were plated on glass coverslips coated with poly-D-lysine (0.5 mg/ml, Stoughton, Mass.). In the HEK cell studies the denominator is the cells expressing both TRPA1, TRPV1, and the designated constructs (i.e. Tmem100 or Tmem100-3Q mutant). mCherry:TRPV1:Tmem100 was transfected in 1:8:8 ratio into TRPA1 stable cell line (obtained from N. Tigue from GlaxoSmithKline) and used mCherry as the marker for the cells expressing the constructs 18 hours after transfection with Lipofectamine 2000. The transfection efficiency for Tmem100+TRPV1+TRPA1 triple-positive cells is 27±3%. This efficiency was determined by mCherry(+) divided by total number of cells in the bright fields.
(§2) The sequence from the last 28 amino acids of the C-terminus of the Tmem100-3Q mutant protein was synthesized and myristoylated at its N-terminus (myr-[…]-COOH) (SEQ ID NO: 8) by Twentyfirst Century Biochemicals. […] For the calcium imaging assay, the peptides were added to the calcium imaging buffer with a final concentration of 200 nM and incubated for at least […] at room temperature. For the mice behavioral assays, the peptides (5 μL, 2 mM) were injected subcutaneously in the hindpaw at least 30 minutes before testing. For the rat behavior assays, human T100-3Q (h-T100), a palmitoylated cell permeable peptide mutated based on the C terminus of human sequence in Tmem100, was applied. The sequence is Palmitoyl-[…]-COOH (SEQ ID NO: 7).

[3] = test system: capsaicin-induced nocifensive behavior in WT mice; experiment: Capsaicin injection: acute nocifensive behavior; assay type: in vivo, mouse; conditions: capsaicin 0.6 μg, peptide 2 mM
Method: Mice were injected with 6 μL of capsaicin (0.1 μg/μL in normal saline/10% ethanol/0.5% Tween 80) in the hindpaws. The mice were placed in a plexiglass cylinder, and the total time spent licking and flinching was recorded for the first 10 minutes after injection.
as §2

TRPA1 [4] = test system: T2, TRPA1; experiment: MO-evoked Ca2+ influx into CHO cells expressing TRPA1+TRPV1; assay type: cell-based; conditions: TRPA1+TRPV1+Tmem100-3Q (1:1:4) CHO cells
T2 construct: MO (10 μM)-evoked Ca2+ influx; other: TRPA1+TRPV1+Tmem100-3Q (1:1:4) CHO cells; MO (10 μM)-gated whole-cell current density; other: Vh=-60 mV; TRPA1+TRPV1+Tmem100-3Q (1:1:4) CHO cells; MO (10 μM)-induced single-channel activity (NPo); co-expressed with TRPA1+TRPV1 (1:1:4) in CHO cells
Method: as §1, with “Intracellular calibration for calcium was performed as previously described (Akopian et al., 2007).” left out

Row | Molecule | MO-induced mechanical hyperalgesia (mechanical threshold) ([1]; peptide 5 μl of 2 mM pre-treatment) [g] | MO-induced acute nocifensive behavior (time) ([1]; peptide 5 μl of 2 mM pre-treatment in hindpaw) [s] | percentage of cells responsive to MO (TRPA1 [2]; peptide 200 nM pre-treatment, 500 nM MO, HEK293T TRPA1+TRPV1) [%] | acute nocifensive behaviors induced by intradermal capsaicin injection [3] [s] | MO (10 μM)-evoked Ca2+ influx (TRPA1 [4]) [nM] | percentage of cells that respond to 100 nM MO and 10 μM CA (TRPA1 [2]; HEK293T TRPA1+TRPV1, Tmem100-3Q-transfected vs lacking Tmem100-3Q)
1 | myr-QRVLEQVLQNWSRRANVKQAQKFQVKCT-COOH (Myristoyl-QRVLEQVLQNWSRRANVKQAQKFQVKCT-OH; SMILES CCCCCCCCCCCCCC(=O)N[C@@H](CCC(N)=O)C(=O)N[C@@H](CCCNC(=N)N)C(=O)N[C@H](C(=O)N[C@@H](CC(C)C)C(=O)N[C@@H](CCC(=O)O)C(=O)N[C@@H](CCC(N)=O)C(=O)N[C@H](C(=O)N[C@@H](CC(C)C)C(=O)N[C@@H](CCC(N)=O)C(=O)N[C@@H](CC(N)=O)C(=O)N[C@@H](Cc1c[nH]c2ccccc12)C(=O)N[C@@H](CO)C(=O)N[C@@H](CCCNC(=N)N)C(=O)N[C@@H](CCCNC(=N)N)C(=O)N[C@@H](C)C(=O)N[C@@H](CC(N)=O)C(=O)N[C@H](C(=O)N[C@@H](CCCCN)C(=O)N[C@@H](CCC(N)=O)C(=O)N[C@@H](C)C(=O)N[C@@H](CCC(N)=O)C(=O)N[C@@H](CCCCN)C(=O)N[C@@H](Cc1ccccc1)C(=O)N[C@@H](CCC(N)=O)C(=O)N[C@H](C(=O)N[C@@H](CCCCN)C(=O)N[C@@H](CS)C(=O)N[C@H](C(=O)O)[C@@H](C)O)C(C)C)C(C)C)C(C)C)C(C)C) [scrambled] | 0.1 ± 0.03 | 80 ± 9 | 18±2.8 | 70 ± 11 | – | –
2 | B1 | – | – | – | – | 321 ± 18.2 | significantly lower
